According to ChEMBL document CHEMBL5143747, “Discovery and Optimization of Triazolopyrimidinone Derivatives as Selective NLRP3 Inflammasome Inhibitors” (ACS Med Chem Lett, 2022):
Values after ≈ are worked out from the molar mass of the structure shown.

Columns and labels:
[1] = target: T1, NACHT, LRR and PYD domains-containing protein 3 (Homo sapiens, UniProt Q96P20); assay: Inhibition of NLRP3 inflammasome in LPS-pretreated PBMC (unknown origin) assessed as reduction in IL-1beta release pretreated for 30 mins followed by ATP stimulated and measured after 1 hr by ELISA; assay type: cell-based
[2] = Inhibition of LPS-stimulated TNF-alpha release in human PBMC measured after 4 hrs by ELISA; assay type: toxicity, cell-based
[3] = Protein binding in human plasma; assay type: ADME, cell-free; settings: read-out: PPB (converted)
[4] = Inhibition of LPS-stimulated IL-6 release in human PBMC measured after 4 hrs by ELISA; assay type: toxicity, cell-based
[5] = Thermodynamic solubility of compound in pH 7.4 phosphate buffer incubated for 24 hrs under shaking condition by UPLC analysis; assay type: physicochemical; settings: read-out: Therm_solubility
[6] = Permeability of compound in pH 7.4 phosphate buffered saline at 10 uM measured after 4 hrs by PAMPA; assay type: ADME; settings: read-out: permeability
[7] = target: T1, NACHT, LRR and PYD domains-containing protein 3; assay: Inhibition of NLRP3 inflammasome in LPS-pretreated human THP1-ASC-GFP cells assessed as reduction in speck positive cells measured after 30 mins in presence of caspase inhibitor zVAD-FMK by Hoechst 33342 staining based confocal microscopy; assay type: cell-based
[8] = target: T1, NACHT, LRR and PYD domains-containing protein 3; assay: Inhibition of NLRP3 inflammasome in LPS-pretreated human whole blood assessed as reduction in IL-1beta release pretreated for 30 mins followed by ATP stimulated and measured after 1 hr by HTRF assay; assay type: tissue-based
[9] = Protein binding in mouse plasma; assay type: ADME, cell-free; settings: read-out: PPB (converted)
[10] = target: T1, NACHT, LRR and PYD domains-containing protein 3; assay: Inhibition of NLRP3 inflammasome in LPS-pretreated PBMC (unknown origin) assessed as reduction in IL-1beta release at 40 uM pretreated for 30 mins followed by ATP stimulated and measured after 1 hr by ELISA relative to control; assay type: cell-based; settings: time 90.0 min
[11] = Protein binding in rat plasma; assay type: ADME, cell-free; settings: read-out: PPB (converted)

T1 sequence (Q96P20 whole entry, the tested form may be a part): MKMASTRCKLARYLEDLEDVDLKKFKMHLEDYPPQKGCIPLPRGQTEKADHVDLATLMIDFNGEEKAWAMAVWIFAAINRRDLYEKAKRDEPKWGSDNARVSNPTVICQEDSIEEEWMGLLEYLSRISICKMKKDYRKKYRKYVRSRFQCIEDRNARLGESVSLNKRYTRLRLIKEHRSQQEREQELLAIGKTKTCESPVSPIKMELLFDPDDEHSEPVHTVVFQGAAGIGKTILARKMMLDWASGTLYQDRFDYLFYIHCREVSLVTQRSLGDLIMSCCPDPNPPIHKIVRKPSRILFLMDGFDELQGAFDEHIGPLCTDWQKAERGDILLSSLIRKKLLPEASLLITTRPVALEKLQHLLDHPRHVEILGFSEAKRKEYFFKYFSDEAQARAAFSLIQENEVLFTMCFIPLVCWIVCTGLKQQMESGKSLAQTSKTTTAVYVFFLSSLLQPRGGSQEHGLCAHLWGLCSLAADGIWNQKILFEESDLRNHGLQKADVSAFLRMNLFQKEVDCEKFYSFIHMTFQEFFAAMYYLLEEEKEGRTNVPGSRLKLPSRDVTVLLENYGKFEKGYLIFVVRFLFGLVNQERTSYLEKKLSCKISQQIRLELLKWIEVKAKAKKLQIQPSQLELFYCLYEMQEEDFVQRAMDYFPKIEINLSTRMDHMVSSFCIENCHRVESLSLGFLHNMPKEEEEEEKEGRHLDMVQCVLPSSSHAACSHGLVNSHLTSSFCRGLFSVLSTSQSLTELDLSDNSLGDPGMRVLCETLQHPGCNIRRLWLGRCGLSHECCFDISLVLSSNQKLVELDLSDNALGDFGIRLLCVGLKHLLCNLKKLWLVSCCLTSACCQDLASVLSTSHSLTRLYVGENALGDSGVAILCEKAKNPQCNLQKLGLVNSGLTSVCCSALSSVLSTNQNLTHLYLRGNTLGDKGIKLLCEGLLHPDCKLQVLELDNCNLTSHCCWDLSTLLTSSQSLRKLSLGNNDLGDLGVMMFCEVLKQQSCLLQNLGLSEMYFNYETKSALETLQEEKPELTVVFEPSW

Row | Structure (SMILES) | IC50 ([1]; read-out: IC50) | other results
1 | O=c1cc(Cc2ccccn2)[nH]c2nc(Nc3c4c(cc5c3CCC5)CCC4)nn12 | – | IC50 [2]: > 40 µM; fraction unbound [3]: 0.002; IC50 [4]: > 40 µM; solubility thermodynamic at 24 h [5]: 2.4 µM (≈ 0.956 µg/mL); Papp at 4 h, 10 µM [6]: < 0.018 ×10⁻⁶ cm/s
2 | Cn1ccc(Cc2cc(=O)n3nc(Nc4c5c(cc6c4CCC6)CCC5)nc3[nH]2)n1 | 1.8 µM | –
3 | COc1ccc(Cc2cc(=O)n3nc(Nc4c5c(cc6c4CCC6)CCC5)nc3[nH]2)cc1 | 3 µM | –
4 | COc1c(C)[nH]c2nc(Nc3c4c(cc5c3CCC5)CCC4)nn2c1=O | > 40 µM | –
5 | Cc1[nH]c2nc(Nc3c4c(cc5c3CCC5)CCC4)nn2c(=O)c1C | > 40 µM | –
6 | Cc1cc(=O)n2nc(Nc3c4c(cc5c3CCC5)CCC4)nc2n1C | > 40 µM | –
7 | Cc1c[nH]c2nc(Nc3c4c(cc5c3CCC5)CCC4)nn2c1=O | > 40 µM | –
8 | O=c1cc(Cc2cccnc2)[nH]c2nc(Nc3c4c(cc5c3CCC5)CCC4)nn12 | 3.4 µM | –
9 | CN1CCN(Cc2cc(=O)n3nc(Nc4c5c(cc6c4CCC6)CCC5)nc3[nH]2)CC1 | > 40 µM | –
10 | Cc1cc(=O)n2nc(Nc3c4c(cc5c3CCC5)CCC4)nc2[nH]1 | – | inhibition [10]: 70%
11 | O=c1cc(Cc2ccccc2F)[nH]c2nc(Nc3c4c(cc5c3CCC5)CCC4)nn12 | 3.7 µM | –
12 | N#Cc1cccc(Cc2cc(=O)n3nc(Nc4c5c(cc6c4CCC6)CCC5)nc3[nH]2)c1 | 2.4 µM | –
13 | Cc1ccn2nc(Nc3c4c(cc5c3CCC5)CCC4)nc2n1 | > 40 µM | –
14 | O=c1cc[nH]c2nc(Nc3c4c(cc5c3CCC5)CCC4)nn12 | – | inhibition [10]: 77%
15 | O=c1cc(Cc2ncccn2)[nH]c2nc(Nc3c4c(cc5c3CCC5)CCC4)nn12 | 1.7 µM | –
16 | Cn1cnc(Cc2cc(=O)n3nc(Nc4c5c(cc6c4CCC6)CCC5)nc3[nH]2)c1 | 5.5 µM | –
17 | S=c1cc(CC2CCCCO2)[nH]c2nc(Nc3c4c(cc5c3CCC5)CCC4)nn12 (stereo not drawn) | – | IC50 [2]: > 20 µM; fraction unbound [9]: 0.004; fraction unbound [3]: 0.001; IC50 [4]: > 20 µM; fraction unbound [11]: 0.002; solubility thermodynamic at 24 h [5]: 730 µM (≈ 308 µg/mL); Papp at 4 h, 10 µM [6]: < 0.0004 ×10⁻⁶ cm/s

Row | Structure (SMILES) | IC50 ([1]; read-out: IC50) | other results
18 | O=c1cc(Cc2ccccc2)[nH]c2nc(Nc3c4c(cc5c3CCC5)CCC4)nn12 | 1.8 µM | –
19 | Cc1ccccc1Cc1cc(=O)n2nc(Nc3c4c(cc5c3CCC5)CCC4)nc2[nH]1 | 4 µM | –
20 | Cc1[nH]c2nc(Nc3c4c(cc5c3CCC5)CCC4)nn2c(=O)c1C#N | > 40 µM | –
21 | Cc1[nH]c2nc(Nc3c4c(cc5c3CCC5)CCC4)nn2c(=O)c1Cc1ccccc1 | > 40 µM | –
22 | Cn1cc(Cc2cc(=O)n3nc(Nc4c5c(cc6c4CCC6)CCC5)nc3[nH]2)cn1 | 4.9 µM | –
23 | N#Cc1ccc(Cc2cc(=O)n3nc(Nc4c5c(cc6c4CCC6)CCC5)nc3[nH]2)cc1 | 1.6 µM | –
24 | N#Cc1ccccc1Cc1cc(=O)n2nc(Nc3c4c(cc5c3CCC5)CCC4)nc2[nH]1 | – | IC50 ([1]; pbmc): Nd(Insoluble)
25 | O=c1cc(Cc2cccc(Cl)c2)[nH]c2nc(Nc3c4c(cc5c3CCC5)CCC4)nn12 | 2.8 µM | –
26 | O=c1cc(Cc2ccc(Cl)cc2)[nH]c2nc(Nc3c4c(cc5c3CCC5)CCC4)nn12 | 10 µM | –
27 | O=c1cc(CCc2ccccc2)[nH]c2nc(Nc3c4c(cc5c3CCC5)CCC4)nn12 | 3.4 µM | –
28 | Cn1nccc1Cc1cc(=O)n2nc(Nc3c4c(cc5c3CCC5)CCC4)nc2[nH]1 | 2 µM | –
29 | S=c1cc(Cc2ccccn2)[nH]c2nc(Nc3c4c(cc5c3CCC5)CCC4)nn12 | – | IC50 [2]: > 40 µM; fraction unbound [9]: 0.004; fraction unbound [3]: 0.019; IC50 [4]: > 40 µM; fraction unbound [11]: 0.015; solubility thermodynamic at 24 h [5]: 1500 µM (≈ 622 µg/mL); Papp at 4 h, 10 µM [6]: < 0.018 ×10⁻⁶ cm/s
30 | Cn1cncc1Cc1cc(=O)n2nc(Nc3c4c(cc5c3CCC5)CCC4)nc2[nH]1 | 16 µM | –
31 | Cc1cc2[nH]c(Nc3c4c(cc5c3CCC5)CCC4)nn2c(=O)n1 | > 40 µM | –
32 | O=c1cc(Cc2ccccc2Cl)[nH]c2nc(Nc3c4c(cc5c3CCC5)CCC4)nn12 | – | IC50 ([1]; pbmc): Nd(Insoluble)
33 | O=c1cc(Cc2ccncc2)[nH]c2nc(Nc3c4c(cc5c3CCC5)CCC4)nn12 | 5.8 µM | –
34 | Cc1cc(=O)n2nc(Nc3c4c(cc5c3CCC5)CCC4)cc2[nH]1 | – | inhibition [10]: 57%

Second part, led by results:

Row | IC50 ([1]; read-out: IC50) | Structure (SMILES) | other results
35 | > 40 µM | CN1CCC(c2cc(=O)n3nc(Nc4c5c(cc6c4CCC6)CCC5)nc3[nH]2)CC1 | –
36 | 4.5 µM | O=c1cc(CC2CCCCC2)[nH]c2nc(Nc3c4c(cc5c3CCC5)CCC4)nn12 | –
37 | > 40 µM | O=c1cc(C2CCCNC2)[nH]c2nc(Nc3c4c(cc5c3CCC5)CCC4)nn12 (stereo not drawn) | –
38 | 6 µM | CN1CCOCC1Cc1cc(=O)n2nc(Nc3c4c(cc5c3CCC5)CCC4)nc2[nH]1 (stereo not drawn) | –
39 | 1.9 µM | O=c1cc(CC2CCCCO2)[nH]c2nc(Nc3c4c(cc5c3CCC5)CCC4)nn12 (stereo not drawn) | IC50 [2]: > 40 µM; IC50 [7]: 1.3 µM; IC50 [8]: > 40 µM; fraction unbound [9]: 0.002; fraction unbound [3]: 0.001; IC50 [4]: > 40 µM; solubility thermodynamic at 24 h [5]: 24 µM (≈ 9.73 µg/mL); Papp at 4 h, 10 µM [6]: 0.038 ×10⁻⁶ cm/s
40 | 3.4 µM | O=c1cc(CC2CCOCC2)[nH]c2nc(Nc3c4c(cc5c3CCC5)CCC4)nn12 | –
41 | 2.8 µM | COCCc1cc(=O)n2nc(Nc3c4c(cc5c3CCC5)CCC4)nc2[nH]1 | –
42 | 5 µM | O=c1cc(CC2CCOC2)[nH]c2nc(Nc3c4c(cc5c3CCC5)CCC4)nn12 (stereo not drawn) | –
43 | 5.4 µM | O=c1cc(CC2COCCN2)[nH]c2nc(Nc3c4c(cc5c3CCC5)CCC4)nn12 (stereo not drawn) | –
44 | > 40 µM | O=c1cc(C2CCNCC2)[nH]c2nc(Nc3c4c(cc5c3CCC5)CCC4)nn12 | –
45 | 8.7 µM | CCc1cc(=O)n2nc(Nc3c4c(cc5c3CCC5)CCC4)nc2[nH]1 | –
46 | 7.8 µM | O=c1cc(CN2CCOCC2)[nH]c2nc(Nc3c4c(cc5c3CCC5)CCC4)nn12 | –
47 | 6.3 µM | O=c1cc(C2CCOCC2)[nH]c2nc(Nc3c4c(cc5c3CCC5)CCC4)nn12 | –
48 | 8.8 µM | CN1CCOC(Cc2cc(=O)n3nc(Nc4c5c(cc6c4CCC6)CCC5)nc3[nH]2)C1 (stereo not drawn) | –
49 | 4.9 µM | CN1CCCC(c2cc(=O)n3nc(Nc4c5c(cc6c4CCC6)CCC5)nc3[nH]2)C1 (stereo not drawn) | –
